The source of these data is patent US20210179600A1, “OXAZOLE AND THIAZOLE DERIVATIVES AS INHIBITORS OF ASK1” (Hepagene Therapeutics (HK) Limited, priority 2017, published 2021).

The assay deals with T1, Recombinant human ASK1 kinase (Homo sapiens, UniProt Q99683).
T1 construct: purchased Invitrogen Inc
T1 sequence (Q99683 1-1374): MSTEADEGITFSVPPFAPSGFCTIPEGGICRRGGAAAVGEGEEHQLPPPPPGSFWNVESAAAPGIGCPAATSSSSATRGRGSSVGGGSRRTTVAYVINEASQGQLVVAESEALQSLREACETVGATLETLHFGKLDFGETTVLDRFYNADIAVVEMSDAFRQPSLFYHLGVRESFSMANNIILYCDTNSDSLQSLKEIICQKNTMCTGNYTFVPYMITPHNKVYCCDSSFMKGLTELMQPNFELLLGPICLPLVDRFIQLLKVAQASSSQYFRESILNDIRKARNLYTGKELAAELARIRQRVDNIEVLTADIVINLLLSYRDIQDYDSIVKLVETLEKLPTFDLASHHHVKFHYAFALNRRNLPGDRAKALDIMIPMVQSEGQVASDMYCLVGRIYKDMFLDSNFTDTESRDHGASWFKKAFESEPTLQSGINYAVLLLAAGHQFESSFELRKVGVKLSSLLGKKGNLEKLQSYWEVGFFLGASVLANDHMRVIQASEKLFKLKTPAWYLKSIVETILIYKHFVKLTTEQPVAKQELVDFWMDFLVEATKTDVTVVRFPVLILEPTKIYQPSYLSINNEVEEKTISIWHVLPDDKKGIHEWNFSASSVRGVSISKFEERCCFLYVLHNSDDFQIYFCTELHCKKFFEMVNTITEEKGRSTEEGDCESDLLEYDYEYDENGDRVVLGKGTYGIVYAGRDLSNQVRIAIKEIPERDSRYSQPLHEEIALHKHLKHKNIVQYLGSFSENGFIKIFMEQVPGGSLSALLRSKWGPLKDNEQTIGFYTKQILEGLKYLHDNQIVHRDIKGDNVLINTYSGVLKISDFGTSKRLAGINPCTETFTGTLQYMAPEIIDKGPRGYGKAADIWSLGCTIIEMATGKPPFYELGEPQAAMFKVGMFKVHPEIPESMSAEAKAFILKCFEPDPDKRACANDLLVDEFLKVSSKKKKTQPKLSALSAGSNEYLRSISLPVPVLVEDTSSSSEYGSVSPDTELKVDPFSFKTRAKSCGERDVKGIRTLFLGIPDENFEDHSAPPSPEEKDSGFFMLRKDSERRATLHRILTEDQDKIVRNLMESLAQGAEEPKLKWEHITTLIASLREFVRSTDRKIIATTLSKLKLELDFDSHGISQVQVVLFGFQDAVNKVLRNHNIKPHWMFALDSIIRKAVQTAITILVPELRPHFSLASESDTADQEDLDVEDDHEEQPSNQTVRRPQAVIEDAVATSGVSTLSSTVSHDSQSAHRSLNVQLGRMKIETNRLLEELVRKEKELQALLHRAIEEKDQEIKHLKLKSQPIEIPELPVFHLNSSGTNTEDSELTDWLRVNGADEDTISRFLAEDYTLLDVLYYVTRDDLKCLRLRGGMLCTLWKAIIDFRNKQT
Put plainly: ASK1 kinase HTRF assay (KinEASE-STK). It counts as biochemical. As to conditions: HTRF detection; 3 nM ASK1 kinase, 1 uM STK-substrate-biotin. As for the experimental part:
Reagents: Recombinant human ASK1 kinase was from Invitrogen Inc. HTRF KinEASE™-STK S3 kit was obtained from Cisbio (Bedford, Mass.). All other reagents were of the highest grade commercially available.
Assay: The assay measures the phosphorylation level of a biotinylatd peptide substrate by the ASK1 kinase using HTRF detection. ASK1 kinase assay is based on HTRF KinEASE™-STK manual from Cisbio. Test compound, 1 uM STK-substrate-biotin, 3 nM of ASK1 kinase are incubated with 1*Kinase buffer with 5 mM MgCl2 and 1 mM DTT. 250 nM Sa-XL 665(4*) and STK-antibody-Cryptate work solution are added to stop the reaction and phosphorylated peptide substrate is detected using Envision 2104 Multilabeled reader from PerkinElmer. The fluorescence is measured at 615 nm (Cryptate) and 665 nm (XL665) and a ratio of 665 nm/615 nm is calculated for each well. The resulting TR-FRET level (a ratio of 665 nm/615 nm) is proportional to the phosphorylation level of substrate.
For orientation: Time-resolved FRET reads energy transfer from a long-lived donor to a nearby acceptor.

As to `Cc1ccc(-c2cnc(-c3cccc(-c4nncn4C(C)CO)n3)o2)c(F)c1` (stereo not shown) [Compound I-001, 2-(3-(6-(5-(2-Fluoro-4-methylphenyl)oxazol-2-yl)pyridin-2-yl)-4H-1,2,4-triazol-4-yl) propan-1-ol], the EC50 is ≤ 0.05 µM.
Under `CC(C)n1cnnc1-c1cccc(-c2ncc(-c3ccccc3)o2)n1` [Compound I-002, 2-(5-Phenyl-1,3-oxazol-2-yl)-6-[4-(propan-2-yl)-4H-1,2,4-triazol-3-yl] pyridine] stands ≤ 0.05 µM.
Regarding `Cc1ccc(-c2cnc(-c3cccc(-c4nncn4C(C)C)n3)s2)c(F)c1` [Compound I-003, 5-(2-Fluoro-4-methylphenyl)-2-(6-(4-isopropyl-4H-1,2,4-triazol-3-yl)pyridin-2-yl)thiazole], the EC50 was in the range of 0.05 to 0.5 µM.
`CC(CO)n1cnnc1-c1cccc(-c2ncc(-c3ccccc3)o2)n1` (stereo not shown) [Compound I-004, 2-(3-(6-(5-Phenyloxazol-2-yl)pyridin-2-yl)-4H-1,2,4-triazol-4-yl) propan-1-ol]: the EC50 is ≤ 0.05 µM.
Under `CC(C)n1cnnc1-c1cccc(-c2ncc(-c3cccc(N4CCC(O)C4)c3)o2)n1` (stereo not shown) [Compound I-005, 1-[3-(2-[6-[4-(Propan-2-yl)-4H-1,2,4-triazol-3-yl]pyridin-2-yl]-1,3-oxazol-5-yl)phenyl]pyrrolidin-3-ol] stands ≤ 0.05 µM; under `CC(C)n1cnnc1-c1cccc(-c2ncc(-c3cccc(C(=O)Nc4ccccc4)c3)o2)n1` [Compound I-006, N-Phenyl-3-(2-[6-[4-(propan-2-yl)-4H-1,2,4-triazol-3-yl]pyridin-2-yl]-1,3-oxazol-5-yl)benzamide], 0.05 to 0.5 µM; under `CC(C)n1cnnc1-c1cccc(-c2ncc(-c3cccc(C(=O)O)c3)o2)n1` [Compound I-008, 3-(2-[6-[4-(Propan-2-yl)-4H-1,2,4-triazol-3-yl]pyridin-2-yl]-1,3-oxazol-5-yl)benzoic acid], 0.05 to 0.5 µM.
Under `CC(C)n1cnnc1-c1cccc(-c2ncc(-c3cccc(C(N)=O)c3)o2)n1` [Compound I-009, 3-(2-[6-[4-(Propan-2-yl)-4H-1,2,4-triazol-3-yl]pyridin-2-yl]-1,3-oxazol-5-yl)benzamide] stands 0.05 to 0.5 µM; under `CCN1CCN(c2cccc(-c3cnc(-c4cccc(-c5nncn5C(C)C)n4)o3)c2)CC1` [Compound I-010, 5-(3-(4-Ethylpiperazin-1-yl)phenyl)-2-(6-(4-isopropyl-4H-1,2,4-triazol-3-yl)pyridin-2-yl)oxazole], ≤ 0.05 µM; under `CC(=O)N1CCN(c2cccc(-c3cnc(-c4cccc(-c5nncn5C(C)C)n4)o3)c2)CC1` [Compound I-011, 1-(4-(3-(2-(6-(4-Isopropyl-4H-1,2,4-triazol-3-yl)pyridin-2-yl)oxazol-5-yl)phenyl)piperazin-1-yl)ethenone], ≤ 0.05 µM.
For `CC(C)n1cnnc1-c1cccc(-c2ncc(-c3cccc(N4CCN(CCO)CC4)c3)o2)n1` [Compound I-012, 2-(4-(3-(2-(6-(4-Isopropyl-4H-1,2,4-triazol-3-yl)pyridin-2-yl)oxazol-5-yl)phenyl)piperazin-1-yl)ethanol], the half-maximal effective concentration (EC50) is ≤ 0.05 µM.
On to `Cc1ccccc1-c1cnc(-c2cccc(-c3nncn3[C@H](C)CN)n2)o1` [Compound I-013, (R)-2-(3-(6-(5-o-Tolyloxazol-2-yl)pyridin-2-yl)-4H-1,2,4-triazol-4-yl)propan-1-amine], for which the concentration for a half-maximal effect (EC50) was 0.5 to 5 µM.
As for `CC(C1CC1)n1cnnc1-c1cccc(-c2ncc(-c3ccccc3)o2)n1` (stereo not shown) [Compound I-015, 2-(6-(4-(1-Cyclopropylethyl)-4H-1,2,4-triazol-3-yl)pyridin-2-yl)-5-phenyloxazole], the EC50 was ≤ 0.05 µM.
Under `CC(C)n1cnnc1-c1cccc(-c2ncc(C3CCCCC3)o2)n1` [Compound I-016, 5-Cyclohexyl-2-(6-(4-isopropyl-4H-1,2,4-triazol-3-yl)pyridin-2-yl) oxazole] stands 0.05 to 0.5 µM.
For `c1ccc(-c2cnc(-c3cccc(-c4nncn4C4CC4)n3)o2)cc1` [Compound I-017], the EC50 is 0.05 to 0.5 µM.
Under `C[C@H](CO)n1cnnc1-c1cccc(-c2ncc(-c3ccccc3)o2)n1` [Compound I-018] stands ≤ 0.05 µM.
In the case of `C[C@@H](CO)n1cnnc1-c1cccc(-c2ncc(-c3ccccc3)o2)n1` [Compound I-019], the concentration for a half-maximal effect (EC50) is 0.05 to 0.5 µM.
For `CC(C)n1cnnc1-c1cccc(-c2ncc(-c3ccncc3)o2)n1` [Compound I-021], the EC50 lay within 0.05 to 0.5 µM.
Under `Cc1ccccc1-c1cnc(-c2cccc(-c3nncn3C(C)C)n2)o1` [Compound I-024] stands ≤ 0.05 µM; under `Cc1ccccc1-c1cnc(-c2cccc(-c3nncn3[C@H](C)CO)n2)o1` [Compound I-025], ≤ 0.05 µM.
Under `CCC(C)n1cnnc1-c1cccc(-c2ncc(-c3ccccc3C)o2)n1` (stereo not shown) [Compound I-026] stands 0.05 to 0.5 µM; under `Cc1ccccc1-c1cnc(-c2cccc(-c3nncn3C(C)C(F)(F)F)n2)o1` (stereo not shown) [Compound I-027], ≤ 0.05 µM.
On to `Cc1cccc(-c2cnc(-c3cccc(-c4nncn4C(C)C)n3)o2)c1` [Compound I-028], for which the 50% effective concentration (EC50) lay in the range of 0.05 to 0.5 µM.
Under `Cc1ccc(-c2cnc(-c3cccc(-c4nncn4C(C)C)n3)o2)cc1` [Compound I-029] stands ≤ 0.05 µM; under `Cc1ccc(-c2cnc(-c3cccc(-c4nncn4[C@H](C)CO)n3)o2)cc1` [Compound I-030], ≤ 0.05 µM; under `Cc1ccc(-c2cnc(-c3cccc(-c4nncn4C(C)C)n3)o2)c(C)c1` [Compound I-031], ≤ 0.05 µM.
For the molecule `Cc1ccc(-c2cnc(-c3cccc(-c4nncn4[C@H](C)CO)n3)o2)c(C)c1` [Compound I-032], the EC50 was ≤ 0.05 µM.
Under `Cc1cc(C)c(-c2cnc(-c3cccc(-c4nncn4[C@H](C)CO)n3)o2)c(C)c1` [Compound I-033] stands 0.05 to 0.5 µM.
Turning to `CC(C)c1cccc(-c2cnc(-c3cccc(-c4nncn4C(C)C)n3)o2)c1` [Compound I-034], the EC50 was in the range of 0.05 to 0.5 µM.
As for `CC(C)c1ccc(-c2cnc(-c3cccc(-c4nncn4C(C)C)n3)o2)cc1` [Compound I-035], the EC50 fell in the range of 0.05 to 0.5 µM.
Under `CCc1ccc(-c2cnc(-c3cccc(-c4nncn4C(C)C)n3)o2)cc1` [Compound I-036] stands 0.05 to 0.5 µM; under `CCc1cccc(-c2cnc(-c3cccc(-c4nncn4C(C)C)n3)o2)c1` [Compound I-037], 0.05 to 0.5 µM; under `CCc1ccccc1-c1cnc(-c2cccc(-c3nncn3C(C)C)n2)o1` [Compound I-038], ≤ 0.05 µM.
Under `CC(C)n1cnnc1-c1cccc(-c2ncc(-c3ccc(C4CC4)cc3)o2)n1` [Compound I-039] stands 0.05 to 0.5 µM.
Under `CC(C)n1cnnc1-c1cccc(-c2ncc(-c3cccc(C4CC4)c3)o2)n1` [Compound I-040] stands ≤ 0.05 µM.
For the molecule `Cc1ccc(-c2cnc(-c3cccc(-c4nncn4C(C)C)n3)o2)c(F)c1` [Compound I-041], the half-maximal effective concentration (EC50) is ≤ 0.05 µM.
As for `Cc1ccc(-c2cnc(-c3cccc(-c4nncn4[C@H](C)CO)n3)o2)c(F)c1` [Compound I-042], the EC50 is ≤ 0.05 µM.
Under `Cc1ccc(-c2cnc(-c3cccc(-c4nncn4[C@@H](C)CO)n3)o2)c(F)c1` [Compound I-043] stands 0.05 to 0.5 µM; under `Cc1cccc(F)c1-c1cnc(-c2cccc(-c3nncn3C(C)C)n2)o1` [Compound I-044], 0.05 to 0.5 µM; under `CC(C)n1cnnc1-c1cccc(-c2ncc(-c3ccc(C(C)(C)C)cc3F)o2)n1` [Compound I-045], 0.05 to 0.5 µM.

Broadly, the EC50 is the concentration that produces a half-maximal response.
